# According to patent publication US6914045B2, “Glycopeptide antibiotics” (Wyeth Holdings Corporation, priority 2001, dated 2005):
# What was measured:
# Experiment in all cases: in vitro antibacterial evaluation, MIC by broth dilution
# Type in all cases: cell-based
# Staphylococcus sp. = conditions: broth dilution, 18 hours at 35° C.
# Method in brief: (§1)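 Broth dilution per NCCLS M7-A2 in Mueller-Hinton II medium, inoculum 5×10^5 CFU/mL, antibiotic range 64-0.06 μg/mL. MIC taken as lowest concentration inhibiting growth; Gram-positive panel includes recent clinical isolates resistant to methicillin, penicillin and/or vancomycin.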
# Escherichia coli = test system: Escherichia coli
# Method in brief: as §1
# Streptococcus sp. = test system: Streptococcus sp.
# Method in brief: as §1
# Enterococcus sp. = test system: Enterococcus sp.
# Method in brief: as §1
# [1] = broth dilution, 18 hours at 35° C.
smiles,measurement,setting,value
CC(c1ccccc1)C1NC(=O)CNC(=O)C(CO)NC(=O)C(C(O)C2CNC(=N)N2C2OC(CO)C(O)C(O)C2O)NC(=O)C(C(O)C2CNC(=N)N2)NC(=O)C(Cc2ccc(OC3OC(CO)C(OC4OC5COC(c6ccc(S(C)(=O)=O)cc6)OC5C(O)C4O)C(O)C3O)cc2)NC1=O (stereo not drawn) [Example 157],MIC Staphylococcus aureus (GC 1131),"Staphylococcus sp.; inoculum 5×10^5 CFU/mL, strain GC 1131",32 µg/mL
same,MIC Staphylococcus aureus (ATCC 29213),Staphylococcus sp.; strain ATCC 29213,32 µg/mL
same,MIC Staphylococcus aureus (GC 1131),Staphylococcus sp.; strain GC 1131,32 µg/mL
same,MIC Staphylococcus aureus (GC 3051),Staphylococcus sp.; strain GC 3051,16 µg/mL
same,MIC Staphylococcus aureus (GC 3053),Staphylococcus sp.; strain GC 3053,32 µg/mL
same,MIC Staphylococcus aureus (GC 4541),Staphylococcus sp.; strain GC 4541,16 µg/mL
same,MIC Staphylococcus aureus (GC 4542),Staphylococcus sp.; strain GC 4542,32 µg/mL
same,MIC Staphylococcus aureus-SMITH (GC 4543),Staphylococcus sp.; strain GC 4543,16 µg/mL
same,MIC Staphylococcus aureus (GC 4544),Staphylococcus sp.; strain GC 4544,32 µg/mL
same,MIC Staphylococcus aureus (GC 4545),Staphylococcus sp.; strain GC 4545,16 µg/mL
same,MIC Staphylococcus haemolyticus (GC 4546),Staphylococcus sp.; strain GC 4546,16 µg/mL
same,MIC Coagulase Negative Staphylococcus (GC 4547),Staphylococcus sp.; strain GC 4547,16 µg/mL
same,MIC Coagulase Negative Staphylococcus (GC 4548),Staphylococcus sp.; strain GC 4548,8 µg/mL
same,MIC Coagulase Negative Staphylococcus (GC 4549),Staphylococcus sp.; strain GC 4549,8 µg/mL
same,MIC Coagulase Negative Staphylococcus (GC 4551),Staphylococcus sp.; strain GC 4551,32 µg/mL
same,MIC Coagulase Negative Staphylococcus (GC 6257),Staphylococcus sp.; strain GC 6257,4 µg/mL
same,MIC Staphylococcus aureus-SMITH (GC 4543),Staphylococcus sp.; strain SMITH GC 4543,16 µg/mL
same,MIC Escherichia coli (ATCC 25922),"Escherichia coli; strain ATCC 25922, 18 hours at 35° C.",>64 µg/mL
same,MIC Escherichia coli (GC 4559),"Escherichia coli; strain GC 4559, 18 hours at 35° C.",>64 µg/mL
same,MIC Streptococcus agalactiae (GC 4564),"Streptococcus sp.; Streptococcus agalactiae (GC 4564); broth dilution, 18 hours at 35° C.",16 µg/mL
same,MIC Streptococcus pneumoniae (ATCC 6301),"Streptococcus sp.; Streptococcus pneumoniae (ATCC 6301); broth dilution, 18 hours at 35° C.",4 µg/mL
same,MIC Streptococcus pneumoniae (GC 1894),"Streptococcus sp.; Streptococcus pneumoniae (GC 1894); broth dilution, 18 hours at 35° C.",4 µg/mL
same,MIC Streptococcus pneumoniae (GC 4565),"Streptococcus sp.; Streptococcus pneumoniae (GC 4565); broth dilution, 18 hours at 35° C.",4 µg/mL
same,MIC Streptococcus pyogenes (GC 4563),"Streptococcus sp.; Streptococcus pyogenes (GC 4563); broth dilution, 18 hours at 35° C.",8 µg/mL
same,MIC Streptococcus pneumoniae (ATCC 6301),"Streptococcus sp.; strain ATCC 6301; broth dilution, 18 hours at 35° C.",4 µg/mL
same,MIC Streptococcus pneumoniae (GC 1894),"Streptococcus sp.; strain GC 1894; broth dilution, 18 hours at 35° C.",4 µg/mL
same,MIC Streptococcus pyogenes (GC 4563),"Streptococcus sp.; strain GC 4563; broth dilution, 18 hours at 35° C.",8 µg/mL
same,MIC Streptococcus agalactiae (GC 4564),"Streptococcus sp.; strain GC 4564; broth dilution, 18 hours at 35° C.",16 µg/mL
same,MIC Streptococcus pneumoniae (GC 4565),"Streptococcus sp.; strain GC 4565; broth dilution, 18 hours at 35° C.",4 µg/mL
same,MIC Enterococcus faecalis (GC 2242),"Enterococcus sp.; Enterococcus faecalis (GC 2242); broth dilution, 18 hours at 35° C.",64 µg/mL
same,MIC Enterococcus faecalis (GC 2691),"Enterococcus sp.; Enterococcus faecalis (GC 2691); broth dilution, 18 hours at 35° C.",>64 µg/mL
same,MIC Enterococcus faecalis (GC 3059),"Enterococcus sp.; Enterococcus faecalis (GC 3059); broth dilution, 18 hours at 35° C.",>64 µg/mL
same,MIC Enterococcus faecalis (ATCC 29212),"Enterococcus sp.; broth dilution, inoculum 5×10^5 CFU/mL, 18 hours at 35° C.; strain ATCC 29212",>64 µg/mL
same,MIC Enterococcus faecium (GC 2243),"Enterococcus sp.; broth dilution, inoculum 5×10^5 CFU/mL, 18 hours at 35° C.; strain GC 2243",64 µg/mL
same,MIC Enterococcus faecalis (GC 4552),"Enterococcus sp.; broth dilution, inoculum 5×10^5 CFU/mL, 18 hours at 35° C.; strain GC 4552",>64 µg/mL
same,MIC Enterococcus faecalis (GC 4553),"Enterococcus sp.; broth dilution, inoculum 5×10^5 CFU/mL, 18 hours at 35° C.; strain GC 4553",>64 µg/mL
same,MIC Enterococcus faecalis (GC 4554),"Enterococcus sp.; broth dilution, inoculum 5×10^5 CFU/mL, 18 hours at 35° C.; strain GC 4554",>64 µg/mL
same,MIC Enterococcus faecium (GC 4556),"Enterococcus sp.; broth dilution, inoculum 5×10^5 CFU/mL, 18 hours at 35° C.; strain GC 4556",>64 µg/mL
same,MIC Enterococcus faecium (GC 4557),"Enterococcus sp.; broth dilution, inoculum 5×10^5 CFU/mL, 18 hours at 35° C.; strain GC 4557",8 µg/mL
same,MIC Enterococcus avium (GC 4558),"Enterococcus sp.; broth dilution, inoculum 5×10^5 CFU/mL, 18 hours at 35° C.; strain GC 4558",64 µg/mL
same,MIC Enterococcus faecalis (GC 6189),"Enterococcus sp.; broth dilution, inoculum 5×10^5 CFU/mL, 18 hours at 35° C.; strain GC 6189",>64 µg/mL
same,MIC Enterococcus faecalis (ATCC 29212),"Enterococcus sp.; strain ATCC 29212; broth dilution, 18 hours at 35° C.",>64 µg/mL
same,MIC Enterococcus faecalis (GC 2242),"Enterococcus sp.; strain GC 2242; broth dilution, 18 hours at 35° C.",64 µg/mL
same,MIC Enterococcus faecium (GC 2243),"Enterococcus sp.; strain GC 2243; broth dilution, 18 hours at 35° C.",64 µg/mL
same,MIC Enterococcus faecalis (GC 2691),"Enterococcus sp.; strain GC 2691; broth dilution, 18 hours at 35° C.",>64 µg/mL
same,MIC Enterococcus faecalis (GC 3059),"Enterococcus sp.; strain GC 3059; broth dilution, 18 hours at 35° C.",>64 µg/mL
same,MIC Enterococcus faecalis (GC 4552),"Enterococcus sp.; strain GC 4552; broth dilution, 18 hours at 35° C.",>64 µg/mL
same,MIC Enterococcus faecalis (GC 4553),"Enterococcus sp.; strain GC 4553; broth dilution, 18 hours at 35° C.",>64 µg/mL
same,MIC Enterococcus faecalis (GC 4554),"Enterococcus sp.; strain GC 4554; broth dilution, 18 hours at 35° C.",>64 µg/mL
same,MIC Enterococcus faecium (GC 4556),"Enterococcus sp.; strain GC 4556; broth dilution, 18 hours at 35° C.",>64 µg/mL
same,MIC Enterococcus faecium (GC 4557),"Enterococcus sp.; strain GC 4557; broth dilution, 18 hours at 35° C.",8 µg/mL
same,MIC Enterococcus avium (GC 4558),"Enterococcus sp.; strain GC 4558; broth dilution, 18 hours at 35° C.",64 µg/mL
same,MIC Enterococcus faecalis (GC 6189),"Enterococcus sp.; strain GC 6189; broth dilution, 18 hours at 35° C.",>64 µg/mL
"CC(c1ccc(F)cc1)C1NC(=O)CNC(=O)C(CO)NC(=O)C(C(O)C2CNC(=N)N2C2OC(CO)C(O)C(O)C2O)NC(=O)C(C(O)C2CNC(=N)N2)NC(=O)C(Cc2ccc(OC3OC(CO)C(OC4OC(CO)C(O)C(O)C4O)C(O)C3O)cc2)NC1=O (stereo not drawn) [Example 261a, Cyclo[glycyl-4-fluoro-β-methylphenylalanyl-O-(4-O-hexopyranosylhexopyranosyl)tyrosyl-3-(2-iminoimidazolidin-4-yl)seryl-3-(3-hexopyranosyl-2-iminoimidazolidin-4-yl)serylseryl]]",MIC Coagulase Negative Staphylococcus (GC 4547),Staphylococcus sp.,>64 µg/mL
same,MIC Coagulase Negative Staphylococcus (GC 4548),Staphylococcus sp.,>64 µg/mL
same,MIC Coagulase Negative Staphylococcus (GC 4549),Staphylococcus sp.,>64 µg/mL
same,MIC Coagulase Negative Staphylococcus (GC 4551),Staphylococcus sp.,>64 µg/mL
same,MIC Staphylococcus aureus (ATCC 29213),Staphylococcus sp.,>64 µg/mL
same,MIC Staphylococcus aureus (GC 1131),Staphylococcus sp.,>64 µg/mL
same,MIC Staphylococcus aureus (GC 4541),Staphylococcus sp.,>64 µg/mL
same,MIC Staphylococcus aureus (GC 4542),Staphylococcus sp.,>64 µg/mL
same,MIC Staphylococcus aureus (GC 4544),Staphylococcus sp.,>64 µg/mL
same,MIC Staphylococcus aureus (GC 4545),Staphylococcus sp.,>64 µg/mL
same,MIC Staphylococcus aureus-SMITH (GC 4543),Staphylococcus sp.,>64 µg/mL
same,MIC Staphylococcus haemolyticus (GC 4546),Staphylococcus sp.,>64 µg/mL
same,MIC Staphylococcus aureus (ATCC 29213),Staphylococcus sp.; strain ATCC 29213,>64 µg/mL
same,MIC Staphylococcus aureus (GC 1131),Staphylococcus sp.; strain GC 1131,>64 µg/mL
same,MIC Staphylococcus aureus (GC 4541),Staphylococcus sp.; strain GC 4541,>64 µg/mL
same,MIC Staphylococcus aureus (GC 4542),Staphylococcus sp.; strain GC 4542,>64 µg/mL
same,MIC Staphylococcus aureus (GC 4544),Staphylococcus sp.; strain GC 4544,>64 µg/mL
same,MIC Staphylococcus aureus (GC 4545),Staphylococcus sp.; strain GC 4545,>64 µg/mL
same,MIC Escherichia coli (ATCC 25922),"Escherichia coli; Escherichia coli (ATCC 25922), 18 hours at 35° C.",>64 µg/mL
same,MIC Escherichia coli (GC 4559),"Escherichia coli; Escherichia coli (GC 4559), 18 hours at 35° C.",>64 µg/mL
same,MIC Escherichia coli (GC 4560),"Escherichia coli; Escherichia coli (GC 4560), 18 hours at 35° C.",>64 µg/mL
same,MIC Streptococcus agalactiae (GC 4564),Streptococcus sp.; [1],>64 µg/mL
same,MIC Streptococcus pyogenes (ID-3187),Streptococcus sp.; [1],>64 µg/mL
same,MIC Streptococcus agalactiae (GC 4564),"Streptococcus sp.; broth dilution, 18 hours at 35° C.; strain GC 4564",>64 µg/mL
same,MIC Streptococcus pyogenes (ID-3187),"Streptococcus sp.; broth dilution, 18 hours at 35° C.; strain ID-3187",>64 µg/mL
same,MIC Enterococcus avium (GC 4558),"Enterococcus sp.; Enterococcus avium (GC 4558); broth dilution, 18 hours at 35° C.",>64 µg/mL
same,MIC Enterococcus faecalis (ATCC 29212),"Enterococcus sp.; Enterococcus faecalis (ATCC 29212); broth dilution, 18 hours at 35° C.",>64 µg/mL
same,MIC Enterococcus faecalis (GC 4553),"Enterococcus sp.; Enterococcus faecalis (GC 4553); broth dilution, 18 hours at 35° C.",>64 µg/mL
same,MIC Enterococcus faecalis (GC 4554),"Enterococcus sp.; Enterococcus faecalis (GC 4554); broth dilution, 18 hours at 35° C.",>64 µg/mL
same,MIC Enterococcus faecium (GC 2243),"Enterococcus sp.; Enterococcus faecium (GC 2243); broth dilution, 18 hours at 35° C.",>64 µg/mL
same,MIC Enterococcus faecium (GC 4556),"Enterococcus sp.; Enterococcus faecium (GC 4556); broth dilution, 18 hours at 35° C.",>64 µg/mL
same,MIC Enterococcus faecium (GC 4557),"Enterococcus sp.; Enterococcus faecium (GC 4557); broth dilution, 18 hours at 35° C.",>64 µg/mL
same,MIC Enterococcus faecalis (GC 2242),Enterococcus sp.; [1],>64 µg/mL
same,MIC Enterococcus faecalis (GC 4552),Enterococcus sp.; [1],>64 µg/mL
same,MIC Enterococcus faecalis (ATCC 29212),"Enterococcus sp.; broth dilution, 18 hours at 35° C.; strain ATCC 29212",>64 µg/mL
same,MIC Enterococcus faecalis (GC 2242),"Enterococcus sp.; broth dilution, 18 hours at 35° C.; strain GC 2242",>64 µg/mL
same,MIC Enterococcus faecium (GC 2243),"Enterococcus sp.; broth dilution, 18 hours at 35° C.; strain GC 2243",>64 µg/mL
same,MIC Enterococcus faecalis (GC 4552),"Enterococcus sp.; broth dilution, 18 hours at 35° C.; strain GC 4552",>64 µg/mL
same,MIC Enterococcus faecalis (GC 4553),"Enterococcus sp.; broth dilution, 18 hours at 35° C.; strain GC 4553",>64 µg/mL
same,MIC Enterococcus faecalis (GC 4554),"Enterococcus sp.; broth dilution, 18 hours at 35° C.; strain GC 4554",>64 µg/mL
same,MIC Enterococcus faecium (GC 4556),"Enterococcus sp.; broth dilution, 18 hours at 35° C.; strain GC 4556",>64 µg/mL
same,MIC Enterococcus faecium (GC 4557),"Enterococcus sp.; broth dilution, 18 hours at 35° C.; strain GC 4557",>64 µg/mL
same,MIC Enterococcus avium (GC 4558),"Enterococcus sp.; broth dilution, 18 hours at 35° C.; strain GC 4558",>64 µg/mL
